From PubChem BioAssay (NCI)
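Five concentrations, 48 hours, 96-well plates. Here, GI50 denotes the concentration required for 50% inhibition of growth. At the TGI there is no net growth.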

Experiments:
Test in all cases: NCI-60 cell line screen, 48 h
CCRF-CEM leukemia = system: CCRF-CEM leukemia
MALME-3M melanoma = system: MALME-3M melanoma
HCC-2998 colon = system: HCC-2998 colon
786-0 renal = system: 786-0 renal
SNB-75 CNS = system: SNB-75 CNS
SK-OV-3 ovarian = system: SK-OV-3 ovarian
HOP-92 NSCLC = system: HOP-92 NSCLC
OVCAR-8 ovarian = system: OVCAR-8 ovarian
T-47D breast = system: T-47D breast
SN12C renal = system: SN12C renal
HS 578T breast = system: HS 578T breast
NCI-H460 lung = system: NCI-H460 lung
PC-3 prostate = system: PC-3 prostate
SF-295 CNS = system: SF-295 CNS
SF-268 CNS = system: SF-268 CNS
MDA-MB-435 = system: MDA-MB-435
SF-539 CNS = system: SF-539 CNS
SK-MEL-2 melanoma = system: SK-MEL-2 melanoma
ACHN renal = system: ACHN renal
K-562 leukemia = system: K-562 leukemia
A498 renal = system: A498 renal
KM12 colon = system: KM12 colon
HL-60(TB) leukemia = system: HL-60(TB) leukemia
MCF7 breast = system: MCF7 breast
SK-MEL-5 melanoma = system: SK-MEL-5 melanoma
EKVX NSCLC = system: EKVX NSCLC
HT29 colon = system: HT29 colon
UACC-62 melanoma = system: UACC-62 melanoma
SR leukemia = system: SR leukemia
SW-620 colon = system: SW-620 colon
BT-549 breast = system: BT-549 breast
M14 melanoma = system: M14 melanoma
MDA-MB-231 breast = system: MDA-MB-231 breast
IGROV1 ovarian = system: IGROV1 ovarian
RPMI-8226 leukemia = system: RPMI-8226 leukemia
LOX IMVI melanoma = system: LOX IMVI melanoma
A549 NSCLC = system: A549 NSCLC
OVCAR-4 ovarian = system: OVCAR-4 ovarian
OVCAR-5 ovarian = system: OVCAR-5 ovarian
UACC-257 melanoma = system: UACC-257 melanoma
UO-31 renal = system: UO-31 renal
TK-10 renal = system: TK-10 renal
SK-MEL-28 melanoma = system: SK-MEL-28 melanoma
U251 CNS = system: U251 CNS
SNB-19 CNS = system: SNB-19 CNS
OVCAR-3 ovarian = system: OVCAR-3 ovarian
NCI-H23 lung = system: NCI-H23 lung
RXF 393 renal = system: RXF 393 renal
MOLT-4 leukemia = system: MOLT-4 leukemia
HCT-116 colon = system: HCT-116 colon
NCI-H522 lung = system: NCI-H522 lung
HOP-62 NSCLC = system: HOP-62 NSCLC
NCI/ADR-RES ovarian = system: NCI/ADR-RES ovarian
COLO 205 colon = system: COLO 205 colon
HCT-15 colon = system: HCT-15 colon

## C[C@@H]1CCC/C=C/[C@H]2C[C@@H](O)C[C@@H]2[C@@H](O)/C=C/C(=O)O1
CCRF-CEM leukemia
  GI50: 130 nM
  TGI: > 33300 nM
MALME-3M melanoma
  GI50: 86.8 nM
  TGI: 1170 nM
HCC-2998 colon
  GI50: 139 nM
  TGI: > 33300 nM
786-0 renal
  GI50: 95.1 nM
  TGI: > 33300 nM
SNB-75 CNS
  GI50: 23 nM
  TGI: > 33300 nM
SK-OV-3 ovarian
  GI50: 144 nM
  TGI: > 33300 nM
HOP-92 NSCLC
  GI50: 89.2 nM
  TGI: 1280 nM
OVCAR-8 ovarian
  GI50: 91.4 nM
  TGI: > 33300 nM
T-47D breast
  GI50: 109 nM
  TGI: 1360 nM
SN12C renal
  GI50: 114 nM
  TGI: > 33300 nM
HS 578T breast
  GI50: 21.1 nM
  TGI: > 33300 nM
NCI-H460 lung
  GI50: 115 nM
  TGI: > 33300 nM
PC-3 prostate
  GI50: 125 nM
  TGI: > 33300 nM
SF-295 CNS
  GI50: 140 nM
  TGI: > 33300 nM
SF-268 CNS
  GI50: 102 nM
  TGI: > 33300 nM
MDA-MB-435
  GI50: 136 nM
  TGI: > 33300 nM
SF-539 CNS
  GI50: 149 nM
  TGI: > 33300 nM
SK-MEL-2 melanoma
  GI50: 92 nM
  TGI: 236 nM
ACHN renal
  GI50: 113 nM
  TGI: 5160 nM
K-562 leukemia
  GI50: 141 nM
  TGI: > 33300 nM
A498 renal
  GI50: 59.5 nM
  TGI: 166 nM
KM12 colon
  GI50: 84.5 nM
  TGI: 3420 nM
HL-60(TB) leukemia
  GI50: 97.3 nM
  TGI: 374 nM
MCF7 breast
  GI50: 96.6 nM
  TGI: > 33300 nM
SK-MEL-5 melanoma
  GI50: 54.7 nM
  TGI: 109 nM
EKVX NSCLC
  GI50: 108 nM
  TGI: > 33300 nM
HT29 colon
  GI50: 96.1 nM
  TGI: 316 nM
UACC-62 melanoma
  GI50: 138 nM
  TGI: > 33300 nM
SR leukemia
  GI50: 111 nM
  TGI: > 33300 nM
SW-620 colon
  GI50: 101 nM
  TGI: 327 nM
BT-549 breast
  GI50: 140 nM
  TGI: > 33300 nM
M14 melanoma
  GI50: 93.2 nM
  TGI: > 33300 nM
MDA-MB-231 breast
  GI50: 69.7 nM
  TGI: 171 nM
IGROV1 ovarian
  GI50: 145 nM
  TGI: > 33300 nM
RPMI-8226 leukemia
  GI50: 104 nM
  TGI: 553 nM
LOX IMVI melanoma
  GI50: 67.7 nM
  TGI: 155 nM
A549 NSCLC
  GI50: 127 nM
  TGI: > 33300 nM
OVCAR-4 ovarian
  GI50: 109 nM
  TGI: > 33300 nM
OVCAR-5 ovarian
  GI50: 136 nM
  TGI: > 33300 nM
UACC-257 melanoma
  GI50: 110 nM
  TGI: > 33300 nM
UO-31 renal
  GI50: 116 nM
  TGI: > 33300 nM
TK-10 renal
  GI50: 114 nM
  TGI: 961 nM
SK-MEL-28 melanoma
  GI50: 40 nM
  TGI: 12000 nM
U251 CNS
  GI50: 137 nM
  TGI: > 33300 nM
SNB-19 CNS
  GI50: 167 nM
  TGI: > 33300 nM
OVCAR-3 ovarian
  GI50: 111 nM
  TGI: 401 nM
NCI-H23 lung
  GI50: 129 nM
  TGI: > 33300 nM
RXF 393 renal
  GI50: 49.8 nM
  TGI: 258 nM
MOLT-4 leukemia
  GI50: 146 nM
  TGI: > 33300 nM
HCT-116 colon
  GI50: 99.5 nM
  TGI: > 33300 nM
NCI-H522 lung
  GI50: 75.6 nM
  TGI: 225 nM
HOP-62 NSCLC
  GI50: 145 nM
  TGI: > 33300 nM
NCI/ADR-RES ovarian
  GI50: 104 nM
  TGI: > 33300 nM
COLO 205 colon
  GI50: 63 nM
  TGI: 131 nM
HCT-15 colon
  GI50: 112 nM
  TGI: > 33300 nM
